pIC50: −log10 of the molar value.
What was measured:
[1] = target: High affinity nerve growth factor receptor (Homo sapiens, UniProt P04629); experiment: Inhibition of recombinant His-tagged human TRKA (441 to 796 residues) expressed in baculovirus expression system using 5-FAM-EEPLYWSFPAKKK-CONH2 as substrate preincubated for 1 hr followed by substrate addition in presence of ATP by mobility shift assay
KM12 [2] = experiment: Cytotoxicity against human KM12 cells assessed as reduction in cell viability incubated for 72 hrs by resazurin based assay; format: functional; settings: KM12, 72 h
HOP-92 = experiment: Antiproliferative activity against human HOP-92 cells assessed as cell growth at 10 uM relative to control; format: functional; settings: read-out: Activity
NCI-H460 = experiment: Antiproliferative activity against human NCI-H460 cells assessed as cell growth at 10 uM relative to control; format: functional; settings: read-out: Activity
RXF 393 = experiment: Antiproliferative activity against human RXF 393 cells assessed as cell growth at 10 uM relative to control; format: functional; settings: read-out: Activity
SW-620 = experiment: Antiproliferative activity against human SW-620 cells assessed as cell growth at 10 uM relative to control; format: functional; settings: read-out: Activity
UACC-257 = experiment: Antiproliferative activity against human UACC-257 cells assessed as cell growth at 10 uM relative to control; format: functional; settings: read-out: Activity
HOP-62 = experiment: Antiproliferative activity against human HOP-62 cells assessed as cell growth at 10 uM relative to control; format: functional; settings: read-out: Activity
BT-549 = experiment: Antiproliferative activity against human BT-549 cells assessed as cell growth at 10 uM relative to control; format: functional; settings: read-out: Activity
PC-3 = experiment: Antiproliferative activity against human PC-3 cells assessed as cell growth at 10 uM relative to control; format: functional; settings: read-out: Activity
HCC 2998 = experiment: Antiproliferative activity against human HCC 2998 cells assessed as cell growth at 10 uM relative to control; format: functional; settings: read-out: Activity
RPMI-8226 = experiment: Antiproliferative activity against human RPMI-8226 cells assessed as cell growth at 10 uM relative to control; format: functional; settings: read-out: Activity
SN12C = experiment: Antiproliferative activity against human SN12C cells assessed as cell growth at 10 uM relative to control; format: functional; settings: read-out: Activity
NCI-H322M = experiment: Antiproliferative activity against human NCI-H322M cells assessed as cell growth at 10 uM relative to control; format: functional; settings: read-out: Activity
M14 = experiment: Antiproliferative activity against human M14 cells assessed as cell growth at 10 uM relative to control; format: functional; settings: read-out: Activity
NCI/ADR-RES = experiment: Antiproliferative activity against human NCI/ADR-RES cells assessed as cell growth at 10 uM relative to control; format: functional; settings: read-out: Activity
ACHN = experiment: Antiproliferative activity against human ACHN cells assessed as cell growth at 10 uM relative to control; format: functional; settings: read-out: Activity
DU-145 = experiment: Antiproliferative activity against human DU-145 cells assessed as cell growth at 10 uM relative to control; format: functional; settings: read-out: Activity
OVCAR-5 = experiment: Antiproliferative activity against human OVCAR-5 cells assessed as cell growth at 10 uM relative to control; format: functional; settings: read-out: Activity
LOX IMVI = experiment: Antiproliferative activity against human LOX IMVI cells assessed as cell growth at 10 uM relative to control; format: functional; settings: read-out: Activity
HL-60(TB) = experiment: Antiproliferative activity against human HL-60(TB) cells assessed as cell growth at 10 uM relative to control; format: functional; settings: read-out: Activity
OVCAR-8 = experiment: Antiproliferative activity against human OVCAR-8 cells assessed as cell growth at 10 uM relative to control; format: functional; settings: read-out: Activity
SF-539 = experiment: Antiproliferative activity against human SF-539 cells assessed as cell growth at 10 uM relative to control; format: functional; settings: read-out: Activity
A498 = experiment: Antiproliferative activity against human A498 cells assessed as cell growth at 10 uM relative to control; format: functional; settings: read-out: Activity
HCT-15 = experiment: Antiproliferative activity against human HCT-15 cells assessed as cell growth at 10 uM relative to control; format: functional; settings: read-out: Activity
SNB-19 = experiment: Antiproliferative activity against human SNB-19 cells assessed as cell growth at 10 uM relative to control; format: functional; settings: read-out: Activity
OVCAR-3 = experiment: Antiproliferative activity against human OVCAR-3 cells assessed as cell growth at 10 uM relative to control; format: functional; settings: read-out: Activity
SK-OV-3 = experiment: Antiproliferative activity against human SK-OV-3 cells assessed as cell growth at 10 uM relative to control; format: functional; settings: read-out: Activity
CCRF-CEM = experiment: Antiproliferative activity against human CCRF-CEM cells assessed as cell growth at 10 uM relative to control; format: functional; settings: read-out: Activity
786-0 = experiment: Antiproliferative activity against human 786-0 cells assessed as cell growth at 10 uM relative to control; format: functional; settings: read-out: Activity
U-251 = experiment: Antiproliferative activity against human U-251 cells assessed as cell growth at 10 uM relative to control; format: functional; settings: read-out: Activity
SR = experiment: Antiproliferative activity against human SR cells assessed as cell growth at 10 uM relative to control; format: functional; settings: read-out: Activity
COLO 205 = experiment: Antiproliferative activity against human COLO 205 cells assessed as cell growth at 10 uM relative to control; format: functional; settings: read-out: Activity
KM12 [3] = experiment: Antiproliferative activity against human KM12 cells assessed as cell growth at 10 uM relative to control; format: functional; settings: read-out: Activity
HCT-116 = experiment: Antiproliferative activity against human HCT-116 cells assessed as cell growth at 10 uM relative to control; format: functional; settings: read-out: Activity
MDA-MB-435 = experiment: Antiproliferative activity against human MDA-MB-435 cells assessed as cell growth at 10 uM relative to control; format: functional; settings: read-out: Activity
Malme-3M = experiment: Antiproliferative activity against human MALME-3M cells assessed as cell growth at 10 uM relative to control; format: functional; settings: read-out: Activity
SF-295 = experiment: Antiproliferative activity against human SF-295 cells assessed as cell growth at 10 uM relative to control; format: functional; settings: read-out: Activity
OVCAR-4 = experiment: Antiproliferative activity against human OVCAR-4 cells assessed as cell growth at 10 uM relative to control; format: functional; settings: read-out: Activity
NCI-H23 = experiment: Antiproliferative activity against human NCI-H23 cells assessed as cell growth at 10 uM relative to control; format: functional; settings: read-out: Activity
T47D = experiment: Antiproliferative activity against human T47D cells assessed as cell growth at 10 uM relative to control; format: functional; settings: read-out: Activity
SK-MEL-2 = experiment: Antiproliferative activity against human SK-MEL-2 cells assessed as cell growth at 10 uM relative to control; format: functional; settings: read-out: Activity
SK-MEL-28 = experiment: Antiproliferative activity against human SK-MEL-28 cells assessed as cell growth at 10 uM relative to control; format: functional; settings: read-out: Activity
TK-10 = experiment: Antiproliferative activity against human TK-10 cells assessed as cell growth at 10 uM relative to control; format: functional; settings: read-out: Activity
NCI-H522 = experiment: Antiproliferative activity against human NCI-H522 cells assessed as cell growth at 10 uM relative to control; format: functional; settings: read-out: Activity
MCF7 = experiment: Antiproliferative activity against human MCF7 cells assessed as cell growth at 10 uM relative to control; format: functional; settings: read-out: Activity
Hs-578T = experiment: Antiproliferative activity against human Hs-578T cells assessed as cell growth at 10 uM relative to control; format: functional; settings: read-out: Activity
SK-MEL-5 = experiment: Antiproliferative activity against human SK-MEL-5 cells assessed as cell growth at 10 uM relative to control; format: functional; settings: read-out: Activity
NCI-H226 = experiment: Antiproliferative activity against human NCI-H226 cells assessed as cell growth at 10 uM relative to control; format: functional; settings: read-out: Activity
IGROV-1 = experiment: Antiproliferative activity against human IGROV-1 cells assessed as cell growth at 10 uM relative to control; format: functional; settings: read-out: Activity
HT-29 = experiment: Antiproliferative activity against human HT-29 cells assessed as cell growth at 10 uM relative to control; format: functional; settings: read-out: Activity
MDA-MB-468 = experiment: Antiproliferative activity against human MDA-MB-468 cells assessed as cell growth at 10 uM relative to control; format: functional; settings: read-out: Activity
UO-31 = experiment: Antiproliferative activity against human UO-31 cells assessed as cell growth at 10 uM relative to control; format: functional; settings: read-out: Activity
A549 = experiment: Antiproliferative activity against human A549 cells assessed as cell growth at 10 uM relative to control; format: functional; settings: read-out: Activity
MOLT-4 = experiment: Antiproliferative activity against human MOLT-4 cells assessed as cell growth at 10 uM relative to control; format: functional; settings: read-out: Activity
MDA-MB-231 = experiment: Antiproliferative activity against human MDA-MB-231 cells assessed as cell growth at 10 uM relative to control; format: functional; settings: read-out: Activity
CAKI-1 = experiment: Antiproliferative activity against human CAKI-1 cells assessed as cell growth at 10 uM relative to control; format: functional; settings: read-out: Activity
SF-268 = experiment: Antiproliferative activity against human SF-268 cells assessed as cell growth at 10 uM relative to control; format: functional; settings: read-out: Activity
EKVX = experiment: Antiproliferative activity against human EKVX cells assessed as cell growth at 10 uM relative to control; format: functional; settings: read-out: Activity
K562 = experiment: Antiproliferative activity against human K562 cells assessed as cell growth at 10 uM relative to control; format: functional; settings: read-out: Activity
UACC-62 = experiment: Antiproliferative activity against human UACC-62 cells assessed as cell growth at 10 uM relative to control; format: functional; settings: read-out: Activity
SNB-75 = experiment: Antiproliferative activity against human SNB-75 cells assessed as cell growth at 10 uM relative to control; format: functional; settings: read-out: Activity

High affinity nerve growth factor receptor, sequence (P04629 whole entry, the tested form may be a part): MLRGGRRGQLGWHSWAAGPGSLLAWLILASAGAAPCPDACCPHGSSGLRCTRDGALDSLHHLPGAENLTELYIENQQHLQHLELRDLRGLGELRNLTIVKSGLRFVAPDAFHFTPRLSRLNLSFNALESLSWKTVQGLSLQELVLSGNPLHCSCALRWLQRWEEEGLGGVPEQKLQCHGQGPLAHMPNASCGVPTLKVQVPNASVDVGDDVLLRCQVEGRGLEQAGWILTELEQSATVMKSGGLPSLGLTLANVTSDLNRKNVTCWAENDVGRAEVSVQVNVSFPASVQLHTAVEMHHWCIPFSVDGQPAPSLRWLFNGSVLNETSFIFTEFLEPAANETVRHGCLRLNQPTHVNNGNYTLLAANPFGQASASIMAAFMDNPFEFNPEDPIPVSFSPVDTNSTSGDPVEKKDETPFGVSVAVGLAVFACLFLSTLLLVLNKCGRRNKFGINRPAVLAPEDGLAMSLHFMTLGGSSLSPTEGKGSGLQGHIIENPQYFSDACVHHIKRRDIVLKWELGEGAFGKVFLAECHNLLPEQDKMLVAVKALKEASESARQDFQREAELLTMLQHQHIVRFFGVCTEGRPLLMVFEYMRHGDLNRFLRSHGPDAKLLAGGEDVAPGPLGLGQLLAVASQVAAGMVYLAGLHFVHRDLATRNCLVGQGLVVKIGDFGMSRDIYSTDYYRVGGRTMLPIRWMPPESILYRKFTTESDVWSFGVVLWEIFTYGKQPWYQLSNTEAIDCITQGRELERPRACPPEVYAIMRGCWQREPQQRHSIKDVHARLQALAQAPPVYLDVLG

Compound: C#Cc1cccc(NC(=O)Cc2ccc(Nc3ncnc4ccsc34)cc2)c1
- pIC50 [1]: 4.65
- pIC50 (KM12 [2]): 4.41

Compound: CS(=O)(=O)c1ccc(-c2cc3ncnc(Nc4ccc(CC(=O)Nc5ccc(F)c(Cl)c5)cc4)c3s2)cc1
- pIC50 [1]: 3.70

Compound: Cn1cc(-c2cc3ncnc(Nc4ccc(CC(=O)Nc5ccc(C(C)(C)C)cc5)cc4)c3s2)cn1
- growth at 10 µM (HOP-92): 132%
- growth at 10 µM (NCI-H460): 99%
- growth at 10 µM (RXF 393): 93.2%
- growth at 10 µM (SW-620): 119%
- growth at 10 µM (UACC-257): 110%
- growth at 10 µM (HOP-62): 125%
- growth at 10 µM (BT-549): 107%
- growth at 10 µM (PC-3): 99.1%
- growth at 10 µM (HCC 2998): 136%
- growth at 10 µM (RPMI-8226): 103%
- growth at 10 µM (SN12C): 98.5%
- growth at 10 µM (NCI-H322M): 99.7%
- growth at 10 µM (M14): 102%
- growth at 10 µM (NCI/ADR-RES): 108%
- growth at 10 µM (ACHN): 84.3%
- growth at 10 µM (DU-145): 98.2%
- growth at 10 µM (OVCAR-5): 118%
- growth at 10 µM (LOX IMVI): 106%
- growth at 10 µM (HL-60(TB)): 97.8%
- growth at 10 µM (OVCAR-8): 103%
- growth at 10 µM (SF-539): 66.9%
- growth at 10 µM (A498): 88.1%
- growth at 10 µM (HCT-15): 102%
- growth at 10 µM (SNB-19): 101%
- growth at 10 µM (OVCAR-3): 110%
- growth at 10 µM (SK-OV-3): 120%
- growth at 10 µM (CCRF-CEM): 100%
- growth at 10 µM (786-0): 101%
- growth at 10 µM (U-251): 88.3%
- growth at 10 µM (SR): 102%
- growth at 10 µM (COLO 205): 120%
- growth at 10 µM (KM12 [3]): 22.4%
- growth at 10 µM (HCT-116): 104%
- growth at 10 µM (MDA-MB-435): 104%
- growth at 10 µM (Malme-3M): 102%
- growth at 10 µM (SF-295): 117%
- growth at 10 µM (OVCAR-4): 98.6%
- growth at 10 µM (NCI-H23): 106%
- growth at 10 µM (T47D): 93.7%
- growth at 10 µM (SK-MEL-2): 105%
- growth at 10 µM (SK-MEL-28): 107%
- growth at 10 µM (TK-10): 98.6%
- growth at 10 µM (NCI-H522): 93%
- growth at 10 µM (MCF7): 96.2%
- growth at 10 µM (Hs-578T): 88.8%
- growth at 10 µM (SK-MEL-5): 98.3%
- growth at 10 µM (NCI-H226): 95.5%
- growth at 10 µM (IGROV-1): 98.2%
- growth at 10 µM (HT-29): 102%
- growth at 10 µM (MDA-MB-468): 90.9%
- growth at 10 µM (UO-31): 102%
- growth at 10 µM (A549): 98.3%
- growth at 10 µM (MOLT-4): 97.5%
- growth at 10 µM (MDA-MB-231): 105%
- growth at 10 µM (CAKI-1): 86%
- growth at 10 µM (SF-268): 101%
- growth at 10 µM (EKVX): 93.2%
- growth at 10 µM (K562): 91.5%
- growth at 10 µM (UACC-62): 101%
- growth at 10 µM (SNB-75): 75%

From ChEMBL document CHEMBL4813963, “Discovery of pyrazolo-thieno[3,2-d]pyrimidinylamino-phenyl acetamides as type-II pan-tropomyosin receptor kinase (TRK) inhibitors: Design, synthesis, and biological evaluation” (Eur J Med Chem, 2021)
